Measured values published in patent publication US6503759B1, “Complex combinatorial chemical libraries encoded with tags” (The Trustees of Columbia University in the City of New York, priority 1992, dated 2003).

Test system: anti-C-myc peptide monoclonal antibody 9E10
Assay: bead staining test for binding to anti-C-myc monoclonal antibody 9E10
Details: bead-bound peptides of the 117,649 peptide library; 1:200 dilution of 9E10 ascites fluid; alkaline phosphatase-coupled goat antimouse IgG colour detection; sequence read from tags
Description: The anti-C-myc peptide monoclonal antibody 9E10 was prepared from ascites fluid as described in Evans et al., Mol. Cell Biol., 5, 3610-3616 (1985) and Munro and Pelham, Cell, 48, 899-907 (1987). To test beads for binding to 9E10, beads were incubated in TBST [20 mM Tris-HCl (pH 7.5), 500 mM NaCl and 0.05% Tween-20] containing 1% bovine serum albumin (BSA) to block non-specific protein binding sites. The beads were then centrifuged, resuspended in a 1:200 dilution of 9E10 ascites fluid in TBST+1% BSA and incubated overnight at 4° C. Beads were subsequently washed three times in TBST and incubated for 90 min. at room temperature in alkaline phosphatase-coupled goat antimouse IgG antibodies (Bio-Rad Laboratories), diluted 1:3000 in TBST+1% BSA. After washing the beads twice in TBST and once in phosphatase buffer (100 mM Tris-HCl, pH 9.5, 100 mM NaCl and 5 mM MgCl2), the beads were incubated 1 hr at room temperature in phosphatase buffer containing one one-hundredth part each of AP Color Reagents A & B (Bio-Rad Laboratories). To stop the reaction, the beads were washed twice in 20 mM sodium EDTA, pH 7.4. Solution phase affinities between 9E10 and various peptides were determined by a modification of the competitive ELISA assay described by Harlow et al., Antibodies: a Laboratory Manual, 570-573, Cold Spring Harbor Press, Cold Spring Harbor, N.Y.

## EQKLISEEDL
  beads stained on exposure to the anti-C-myc monoclonal antibody: stained
